Key:
Acetylcholinesterase [1] = biological target: T1, Acetylcholinesterase (Rattus norvegicus, UniProt P37136); experiment: Inhibition of AChE from rat cortex by Ellman's method
T1 sequence (P37136 whole entry): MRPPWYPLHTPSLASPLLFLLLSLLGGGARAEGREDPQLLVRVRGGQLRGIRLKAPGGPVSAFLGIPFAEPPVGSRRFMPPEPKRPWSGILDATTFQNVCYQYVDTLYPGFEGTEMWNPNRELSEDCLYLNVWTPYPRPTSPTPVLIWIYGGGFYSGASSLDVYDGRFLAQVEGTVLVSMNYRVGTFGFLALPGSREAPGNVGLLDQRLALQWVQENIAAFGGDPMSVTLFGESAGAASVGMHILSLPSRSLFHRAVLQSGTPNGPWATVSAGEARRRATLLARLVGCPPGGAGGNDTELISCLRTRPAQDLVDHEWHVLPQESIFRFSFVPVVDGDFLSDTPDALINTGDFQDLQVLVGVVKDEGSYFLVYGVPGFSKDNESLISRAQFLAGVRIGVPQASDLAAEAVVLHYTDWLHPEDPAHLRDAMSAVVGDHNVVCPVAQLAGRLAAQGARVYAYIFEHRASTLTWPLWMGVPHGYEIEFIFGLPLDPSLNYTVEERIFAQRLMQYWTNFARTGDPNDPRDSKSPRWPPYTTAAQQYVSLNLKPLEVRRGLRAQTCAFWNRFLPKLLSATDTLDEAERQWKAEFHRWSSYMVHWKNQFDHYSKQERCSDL

[2] = biological target: Glutamate [NMDA] receptor; experiment: Inhibition of NMDA receptor (unknown origin); type: protein-complex assay, Homo sapiens
Acetylcholinesterase [3] = biological target: T2, Acetylcholinesterase (Homo sapiens, UniProt P22303); experiment: Inhibition of AChE (unknown origin)
[4] = biological target: Amyloid-beta precursor protein (Homo sapiens) (UniProt P05067); experiment: Inhibition of beta amyloid (unknown origin) self-induced aggregation relative to control; details: concentration not given here
Cholinesterase = Cholinesterase (Equus caballus, UniProt P81908); experiment: Inhibition of equine serum BChE using butyrylthiocholine iodide as substrate preincubated for 10 mins followed by substrate addition by Ellman's method
[5] = biological target: Glutamate [NMDA] receptor; experiment: Displacement of [3H]-MK-801 from NMDA receptor (unknown origin) by scintillation counting method; type: protein-complex assay, Homo sapiens
[6] = biological target: Glutamate [NMDA] receptor; experiment: Displacement of [3H]-ifenprodil from NMDA receptor (unknown origin) by scintillation counting method; type: protein-complex assay, Homo sapiens
Beta-secretase 1 [7] = biological target: T3, Beta-secretase 1 (Homo sapiens, UniProt P56817); experiment: Inhibition of BACE-1 (unknown origin)
[8] = biological target: T4, Amine oxidase [flavin-containing] A (Homo sapiens, UniProt P21397); experiment: Irreversible inhibition of MAOA (unknown origin)
T4 sequence (P21397 whole entry): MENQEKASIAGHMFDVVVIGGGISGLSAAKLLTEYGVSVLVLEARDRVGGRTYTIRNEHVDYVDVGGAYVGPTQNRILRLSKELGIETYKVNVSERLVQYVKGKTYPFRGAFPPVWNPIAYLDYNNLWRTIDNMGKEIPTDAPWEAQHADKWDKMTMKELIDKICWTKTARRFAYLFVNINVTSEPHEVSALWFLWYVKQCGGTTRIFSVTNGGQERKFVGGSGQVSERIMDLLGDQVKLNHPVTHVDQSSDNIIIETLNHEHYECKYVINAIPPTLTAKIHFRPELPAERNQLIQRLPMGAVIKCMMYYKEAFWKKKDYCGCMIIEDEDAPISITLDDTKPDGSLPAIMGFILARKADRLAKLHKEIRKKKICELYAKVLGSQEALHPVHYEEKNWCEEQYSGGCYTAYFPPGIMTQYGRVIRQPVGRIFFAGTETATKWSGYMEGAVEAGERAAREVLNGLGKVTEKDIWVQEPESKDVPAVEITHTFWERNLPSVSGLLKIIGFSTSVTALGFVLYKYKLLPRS

[9] = biological target: T5, Amine oxidase [flavin-containing] B (Homo sapiens, UniProt P27338); experiment: Irreversible inhibition of MAOB (unknown origin)
T5 sequence (P27338 whole entry): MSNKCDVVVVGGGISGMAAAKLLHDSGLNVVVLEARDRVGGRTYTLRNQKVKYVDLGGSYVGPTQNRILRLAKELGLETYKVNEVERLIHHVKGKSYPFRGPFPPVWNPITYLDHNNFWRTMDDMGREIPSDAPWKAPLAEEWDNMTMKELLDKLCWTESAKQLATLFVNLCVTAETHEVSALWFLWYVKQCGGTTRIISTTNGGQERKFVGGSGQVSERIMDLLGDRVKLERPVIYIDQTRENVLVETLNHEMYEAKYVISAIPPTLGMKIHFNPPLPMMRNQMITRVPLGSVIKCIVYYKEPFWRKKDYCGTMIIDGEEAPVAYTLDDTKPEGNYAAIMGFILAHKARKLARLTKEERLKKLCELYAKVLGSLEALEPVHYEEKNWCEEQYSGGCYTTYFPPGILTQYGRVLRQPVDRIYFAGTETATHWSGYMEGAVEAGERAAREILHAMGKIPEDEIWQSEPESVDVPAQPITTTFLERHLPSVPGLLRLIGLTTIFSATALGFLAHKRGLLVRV

Acetylcholinesterase [10] = biological target: T2, Acetylcholinesterase; experiment: Inhibition of recombinant human AChE
Beta-secretase 1 [11] = biological target: T3, Beta-secretase 1; experiment: Inhibition of recombinant human BACE-1
CHO-K1 = experiment: Cytotoxicity against CHOK1 cells assessed as reduction in cell viability by MTT assay; type: cell-based; details: Cricetulus griseus
HepG2 = experiment: Cytotoxicity against human HepG2 cells assessed as reduction in cell viability by MTT assay; type: cell-based
Acetylcholinesterase [12] = biological target: T6, Acetylcholinesterase (Electrophorus electricus, UniProt O42275); experiment: Inhibition of electric eel AChE using acetylthiocholine chloride as substrate preincubated for 15 mins followed by substrate addition
[13] = biological target: T4, Amine oxidase [flavin-containing] A; experiment: Mixed type inhibition of MAOA (unknown origin)
[14] = biological target: T5, Amine oxidase [flavin-containing] B; experiment: Mixed type inhibition of MAOB (unknown origin)
Acetylcholinesterase [15] = biological target: T2, Acetylcholinesterase; experiment: Irreversible inhibition of AChE (unknown origin)
Beta-secretase 1 [16] = biological target: T3, Beta-secretase 1; experiment: Irreversible inhibition of BACE-1 (unknown origin)
Butyrylcholinesterase = Butyrylcholinesterase (Rattus norvegicus, UniProt Q9JKC1); experiment: Inhibition of BuChE from rat serum by Ellman's method
[17] = biological target: cGMP-specific 3',5'-cyclic phosphodiesterase (Homo sapiens, UniProt O76074); experiment: Inhibition of PDE5A1 (unknown origin) by immobilized metal ion affinity-based fluorescence polarization
[18] = biological target: cGMP-dependent 3',5'-cyclic phosphodiesterase (Homo sapiens, UniProt O00408); experiment: Inhibition of PDE2A1 (unknown origin) by immobilized metal ion affinity-based fluorescence polarization
[19] = biological target: cGMP-inhibited 3',5'-cyclic phosphodiesterase 3A (Homo sapiens, UniProt Q14432); experiment: Inhibition of PDE3A (unknown origin) by immobilized metal ion affinity-based fluorescence polarization
[20] = biological target: Cone cGMP-specific 3',5'-cyclic phosphodiesterase subunit alpha' (Homo sapiens, UniProt P51160); experiment: Inhibition of PDE6C (unknown origin) by immobilized metal ion affinity-based fluorescence polarization
[21] = biological target: High affinity 3',5'-cyclic-AMP phosphodiesterase 7A (Homo sapiens, UniProt Q13946); experiment: Inhibition of PDE7A (unknown origin) by immobilized metal ion affinity-based fluorescence polarization
[22] = biological target: High affinity cGMP-specific 3',5'-cyclic phosphodiesterase 9A (Homo sapiens, UniProt O76083); experiment: Inhibition of PDE9A2 (unknown origin) by immobilized metal ion affinity-based fluorescence polarization
[23] = Inhibition of PDE4D3 (unknown origin) by immobilized metal ion affinity-based fluorescence polarization; design: species or system Homo sapiens
Acetylcholinesterase [24] = biological target: T6, Acetylcholinesterase; experiment: Inhibition of electric eel AChE using acetylthiocholine as substrate measured for 3.2 mins by Ellman's method
[25] = Oral bioavailability in Alzheimer's disease patient at 2 mg/ml; type: ADME, organism-based; details: human, in vivo
[26] = Half life in Alzheimer's disease patient at 2 mg/ml, po; type: ADME; details: human, in vivo
[27] = Drug excretion in Alzheimer's disease patient urine at 2 mg/ml, po; type: ADME, tissue-based; details: human, read-out: Drug excretion
[28] = biological target: Amyloid-beta precursor protein (Homo sapiens) (UniProt P05067); experiment: Inhibition of beta amyloid (unknown origin) self-induced aggregation at 10 uM relative to control
Acetylcholinesterase [29] = biological target: T2, Acetylcholinesterase; experiment: Inhibition of recombinant human AChE using acetylthiocholine as substrate by UV-visible absorption method
Beta-secretase 1 [30] = biological target: T3, Beta-secretase 1; experiment: Inhibition of BACE-1 (unknown origin) after 60 mins by FRET assay

T3 sequence (P56817 whole entry): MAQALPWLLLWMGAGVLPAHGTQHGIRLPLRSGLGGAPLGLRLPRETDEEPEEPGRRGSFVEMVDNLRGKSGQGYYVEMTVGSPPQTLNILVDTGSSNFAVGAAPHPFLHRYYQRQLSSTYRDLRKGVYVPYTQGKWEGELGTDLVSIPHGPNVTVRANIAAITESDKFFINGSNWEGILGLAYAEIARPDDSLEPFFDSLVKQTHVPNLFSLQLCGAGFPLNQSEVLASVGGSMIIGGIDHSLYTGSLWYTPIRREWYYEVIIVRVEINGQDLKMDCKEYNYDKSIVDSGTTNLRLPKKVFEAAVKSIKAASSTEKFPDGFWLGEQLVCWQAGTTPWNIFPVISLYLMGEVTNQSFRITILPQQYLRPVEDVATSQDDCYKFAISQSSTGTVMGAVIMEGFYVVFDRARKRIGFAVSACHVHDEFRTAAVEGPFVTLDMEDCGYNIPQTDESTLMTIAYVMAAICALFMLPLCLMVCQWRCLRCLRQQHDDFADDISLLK
T2 sequence (P22303 whole entry): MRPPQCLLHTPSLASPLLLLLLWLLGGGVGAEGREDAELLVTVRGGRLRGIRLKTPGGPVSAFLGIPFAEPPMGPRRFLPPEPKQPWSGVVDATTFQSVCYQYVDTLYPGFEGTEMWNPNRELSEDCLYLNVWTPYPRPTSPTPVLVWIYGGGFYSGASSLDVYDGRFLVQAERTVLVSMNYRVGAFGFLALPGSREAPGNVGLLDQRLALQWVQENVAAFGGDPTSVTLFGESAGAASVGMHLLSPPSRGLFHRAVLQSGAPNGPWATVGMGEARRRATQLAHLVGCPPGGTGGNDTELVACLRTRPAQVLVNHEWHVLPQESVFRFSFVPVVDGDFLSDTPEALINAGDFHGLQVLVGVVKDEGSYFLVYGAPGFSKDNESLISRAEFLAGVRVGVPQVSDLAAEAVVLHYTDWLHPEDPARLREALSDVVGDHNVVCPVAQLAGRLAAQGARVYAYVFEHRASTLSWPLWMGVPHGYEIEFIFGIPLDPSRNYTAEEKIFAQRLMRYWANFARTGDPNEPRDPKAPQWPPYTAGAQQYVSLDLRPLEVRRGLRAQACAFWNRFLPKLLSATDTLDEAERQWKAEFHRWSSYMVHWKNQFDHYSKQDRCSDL
T6 sequence (O42275 whole entry): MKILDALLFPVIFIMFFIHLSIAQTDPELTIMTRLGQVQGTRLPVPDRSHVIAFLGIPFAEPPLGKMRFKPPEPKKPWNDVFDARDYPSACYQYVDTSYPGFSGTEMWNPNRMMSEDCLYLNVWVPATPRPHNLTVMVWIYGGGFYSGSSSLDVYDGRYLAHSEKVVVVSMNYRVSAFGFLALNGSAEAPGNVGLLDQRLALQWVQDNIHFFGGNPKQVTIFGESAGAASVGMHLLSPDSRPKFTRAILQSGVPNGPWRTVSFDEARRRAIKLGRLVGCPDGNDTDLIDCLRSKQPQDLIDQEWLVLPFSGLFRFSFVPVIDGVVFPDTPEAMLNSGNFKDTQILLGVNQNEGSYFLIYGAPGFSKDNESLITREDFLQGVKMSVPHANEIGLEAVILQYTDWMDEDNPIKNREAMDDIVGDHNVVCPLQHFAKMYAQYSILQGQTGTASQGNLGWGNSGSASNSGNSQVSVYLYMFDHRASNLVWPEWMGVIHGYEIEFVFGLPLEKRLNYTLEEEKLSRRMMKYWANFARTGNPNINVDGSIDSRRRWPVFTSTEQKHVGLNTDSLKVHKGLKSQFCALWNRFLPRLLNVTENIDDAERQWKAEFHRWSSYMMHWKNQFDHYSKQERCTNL
Sequence of Amyloid-beta precursor protein (Homo sapiens) (P05067 whole entry): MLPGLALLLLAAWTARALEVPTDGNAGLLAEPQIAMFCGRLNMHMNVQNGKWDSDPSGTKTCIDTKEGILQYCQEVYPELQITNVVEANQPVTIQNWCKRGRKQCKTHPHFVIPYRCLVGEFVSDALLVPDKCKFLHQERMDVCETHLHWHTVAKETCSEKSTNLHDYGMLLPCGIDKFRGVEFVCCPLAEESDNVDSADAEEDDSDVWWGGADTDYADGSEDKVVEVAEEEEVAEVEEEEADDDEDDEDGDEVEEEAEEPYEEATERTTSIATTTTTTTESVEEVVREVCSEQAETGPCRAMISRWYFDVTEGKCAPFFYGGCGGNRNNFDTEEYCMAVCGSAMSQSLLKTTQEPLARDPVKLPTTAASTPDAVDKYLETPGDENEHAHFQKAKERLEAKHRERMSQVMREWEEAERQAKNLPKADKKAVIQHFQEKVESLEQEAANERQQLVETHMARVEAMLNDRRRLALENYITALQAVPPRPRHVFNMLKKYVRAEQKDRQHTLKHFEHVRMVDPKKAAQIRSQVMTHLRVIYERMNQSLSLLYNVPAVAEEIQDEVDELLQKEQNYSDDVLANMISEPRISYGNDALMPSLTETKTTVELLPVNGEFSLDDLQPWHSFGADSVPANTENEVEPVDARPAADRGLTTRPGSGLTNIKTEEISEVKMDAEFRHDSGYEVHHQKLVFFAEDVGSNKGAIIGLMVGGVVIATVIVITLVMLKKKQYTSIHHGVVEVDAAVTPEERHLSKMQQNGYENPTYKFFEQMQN
Sequence of High affinity 3',5'-cyclic-AMP phosphodiesterase 7A (Q13946 whole entry): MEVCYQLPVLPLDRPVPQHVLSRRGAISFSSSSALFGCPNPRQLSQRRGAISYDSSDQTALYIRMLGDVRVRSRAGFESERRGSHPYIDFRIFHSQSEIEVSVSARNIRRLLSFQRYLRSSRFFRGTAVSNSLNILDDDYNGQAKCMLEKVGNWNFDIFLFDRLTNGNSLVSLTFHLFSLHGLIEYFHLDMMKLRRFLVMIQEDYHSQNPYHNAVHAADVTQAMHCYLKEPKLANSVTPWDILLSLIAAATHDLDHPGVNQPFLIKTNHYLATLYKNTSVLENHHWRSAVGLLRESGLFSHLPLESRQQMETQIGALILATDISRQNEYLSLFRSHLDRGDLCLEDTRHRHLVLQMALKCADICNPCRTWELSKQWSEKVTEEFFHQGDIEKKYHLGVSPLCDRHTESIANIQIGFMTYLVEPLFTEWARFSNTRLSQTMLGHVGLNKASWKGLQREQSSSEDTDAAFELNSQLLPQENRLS
Sequence of Cone cGMP-specific 3',5'-cyclic phosphodiesterase subunit alpha' (P51160 whole entry): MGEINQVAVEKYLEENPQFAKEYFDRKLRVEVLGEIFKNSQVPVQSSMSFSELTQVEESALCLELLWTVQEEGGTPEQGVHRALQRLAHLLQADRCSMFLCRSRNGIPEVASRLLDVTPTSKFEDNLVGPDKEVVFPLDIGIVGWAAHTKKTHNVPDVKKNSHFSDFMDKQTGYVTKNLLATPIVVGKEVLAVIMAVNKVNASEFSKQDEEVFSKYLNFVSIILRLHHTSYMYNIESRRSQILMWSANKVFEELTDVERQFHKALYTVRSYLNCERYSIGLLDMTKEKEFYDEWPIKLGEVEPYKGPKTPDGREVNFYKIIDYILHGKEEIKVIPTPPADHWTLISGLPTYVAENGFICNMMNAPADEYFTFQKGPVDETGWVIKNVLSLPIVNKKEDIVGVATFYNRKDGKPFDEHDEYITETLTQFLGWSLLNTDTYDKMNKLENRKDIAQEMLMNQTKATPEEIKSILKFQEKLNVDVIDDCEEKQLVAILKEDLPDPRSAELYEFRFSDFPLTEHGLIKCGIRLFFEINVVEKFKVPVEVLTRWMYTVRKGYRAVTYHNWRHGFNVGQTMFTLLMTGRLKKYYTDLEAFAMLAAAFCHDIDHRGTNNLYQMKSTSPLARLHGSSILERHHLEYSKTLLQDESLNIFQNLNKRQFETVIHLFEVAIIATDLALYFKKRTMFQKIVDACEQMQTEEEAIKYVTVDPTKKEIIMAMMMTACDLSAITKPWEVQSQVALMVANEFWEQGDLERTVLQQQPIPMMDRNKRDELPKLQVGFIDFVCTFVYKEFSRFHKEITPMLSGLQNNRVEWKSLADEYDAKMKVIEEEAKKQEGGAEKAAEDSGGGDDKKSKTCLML
Sequence of Butyrylcholinesterase (Q9JKC1 whole entry): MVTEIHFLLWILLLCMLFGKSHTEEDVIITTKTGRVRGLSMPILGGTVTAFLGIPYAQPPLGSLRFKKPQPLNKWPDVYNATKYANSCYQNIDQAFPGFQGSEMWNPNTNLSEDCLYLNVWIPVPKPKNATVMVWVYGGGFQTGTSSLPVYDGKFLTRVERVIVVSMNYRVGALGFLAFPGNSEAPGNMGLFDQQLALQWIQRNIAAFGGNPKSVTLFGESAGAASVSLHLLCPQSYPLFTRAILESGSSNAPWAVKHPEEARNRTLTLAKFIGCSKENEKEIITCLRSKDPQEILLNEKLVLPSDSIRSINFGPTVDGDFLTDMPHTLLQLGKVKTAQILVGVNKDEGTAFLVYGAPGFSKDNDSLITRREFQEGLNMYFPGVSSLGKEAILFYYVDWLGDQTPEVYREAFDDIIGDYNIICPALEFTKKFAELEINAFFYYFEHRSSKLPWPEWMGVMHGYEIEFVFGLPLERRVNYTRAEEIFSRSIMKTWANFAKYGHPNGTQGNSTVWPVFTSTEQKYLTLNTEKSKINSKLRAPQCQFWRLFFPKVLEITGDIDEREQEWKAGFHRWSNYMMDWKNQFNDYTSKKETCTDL
Sequence of Cholinesterase (P81908 whole entry): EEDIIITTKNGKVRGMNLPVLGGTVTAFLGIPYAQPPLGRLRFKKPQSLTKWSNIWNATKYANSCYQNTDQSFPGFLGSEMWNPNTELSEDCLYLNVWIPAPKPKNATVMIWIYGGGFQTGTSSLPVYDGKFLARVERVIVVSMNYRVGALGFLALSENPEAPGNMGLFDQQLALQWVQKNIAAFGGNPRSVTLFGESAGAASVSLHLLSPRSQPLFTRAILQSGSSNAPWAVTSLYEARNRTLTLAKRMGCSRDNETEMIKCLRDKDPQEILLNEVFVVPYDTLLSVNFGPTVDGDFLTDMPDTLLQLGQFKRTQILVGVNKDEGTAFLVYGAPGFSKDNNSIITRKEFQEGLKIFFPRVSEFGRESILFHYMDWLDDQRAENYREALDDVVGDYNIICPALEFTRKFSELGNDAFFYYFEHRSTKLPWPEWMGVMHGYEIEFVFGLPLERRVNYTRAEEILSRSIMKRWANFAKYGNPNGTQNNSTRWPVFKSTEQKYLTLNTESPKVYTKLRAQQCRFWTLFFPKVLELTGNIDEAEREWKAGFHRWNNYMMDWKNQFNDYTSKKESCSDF

Work on CN1CC(=O)N2[C@H](c3ccc4c(c3)OCO4)c3[nH]c4ccccc4c3C[C@@H]2C1=O yielded an IC50 (Acetylcholinesterase [1]) of 26.2 µM.
Work on Cc1ccc2[nH]c3c(c2c1)CN(CCCCCN1CCc2[nH]c4ccc(C)cc4c2C1)CC3 yielded an IC50 [2] of 11 µM, an IC50 (Acetylcholinesterase [3]) of 0.195 µM and an inhibition [4] of 67%.
Compound CCN1CCc2c(c3ccccc3n2CCC(=O)N2c3ccccc3Sc3ccccc32)C1 has an IC50 (Cholinesterase) of 0.52 µM, an IC50 [5] of 14.6 µM and an IC50 [6] of 13.4 µM.
COc1cc(/C=C/C(O)=C/C(=O)/C=C/c2ccc(OCc3ccccc3)cc2)ccc1O gave an IC50 (Beta-secretase 1 [7]) of 2.5 µM.
COc1ccc2[nH]c3nc4c(c(N)c3c2c1)CCCC4 gave an IC50 [8] of 0.49 µM, an IC50 [9] of 53.9 µM and an IC50 (Acetylcholinesterase [10]) of 1.5 µM. The IC50 (Beta-secretase 1 [11]) was 2.4 µM, the IC50 (CHO-K1) was 5.5 µM and the IC50 (HepG2) was 1.22 µM.
Compound OC(CNCc1cccc(OCc2ccccc2)c1)Cn1cc(Br)c2cc(Br)ccc21 (stereo not given) has an IC50 (Acetylcholinesterase [3]) of 9.1 µM and an IC50 (Beta-secretase 1 [7]) of 0.97 µM.
COc1ccc(/C=C2\COc3cc(OCCCN4CCCCC4)ccc3C2=O)cc1 showed an IC50 (Acetylcholinesterase [12]) of 3.94 µM.
Work on C#CCN(C)Cc1ccc(O)c2ncccc12 yielded an IC50 [13] of 57 µM, an IC50 [14] of 1.5 µM and an IC50 (Acetylcholinesterase [15]) of 1.8 µM. It also gave an IC50 (Beta-secretase 1 [16]) of 1.6 µM, an IC50 [8] of 6.2 µM and an IC50 [9] of 10.2 µM.
O=C1[C@H]2Cc3c([nH]c4ccccc34)[C@@H](c3ccc4c(c3)OCO4)N2C(=O)CN1CCC1CCN(Cc2ccccc2)CC1 showed an IC50 (Acetylcholinesterase [1]) of 0.032 µM, an IC50 (Butyrylcholinesterase) of 3.88 µM and an IC50 [17] of 1.53 µM. For the same compound, the IC50 [18] was over 100 µM, the IC50 [19] was over 100 µM and the IC50 [20] was over 100 µM. For the same compound, the IC50 [21] was over 100 µM, the IC50 [22] was over 100 µM and the IC50 [23] was over 100 µM.
For Cc1cc(=O)oc2cc(OCCN3CCN(CC(=O)Nc4c5c(nc6ccccc46)CCCC5)CC3)ccc12, the IC50 (Acetylcholinesterase [24]) was 92 µM.
For CC12CC3CC(C)(C1)CC(N)(C3)C2 [MEMANTINE], the bioavailability [25] was 100%, the half-life [26] was 60 to 100 h and the dose excreted [27] was 48%.
C#CCN(C)Cc1cc2cc(OCCCC3CCN(Cc4ccccc4)CC3)ccc2n1C gave an IC50 (Acetylcholinesterase [3]) of 0.35 µM and an inhibition [28] of 47.8%.
In the case of COc1ccc(CNC(=O)C2CCN(C(=O)c3ccccc3)CC2)cc1OC, the IC50 (Acetylcholinesterase [29]) is reported as 0.00411 µM and the IC50 (Beta-secretase 1 [30]) is reported as 0.0183 µM.

From ChEMBL document CHEMBL4350982, “Multi-target design strategies for the improved treatment of Alzheimer's disease” (Eur J Med Chem, 2019)
